Measured values as given in patent publication US20220313707A1 (priority 2021, published 2022).

System: influenza A Hp1N1 virus
Set-up: species or system mice
Settings: mouse, in vivo

Row | SMILES | 14 d survival rate | Mean days of survival | Survival number (pcs.) | Survival rate (%)
1 | CC1(C)C(=O)N(c2ccc(C#N)c(C(F)(F)F)c2F)C(=S)N1c1ccc(CCCc2ncco2)nc1 [Proxalutamide] | 40% | 11.0 ± 2.83 days | 4 pcs. | 40%
2 | CC1(C)C(=O)N(c2ccc(C#N)c(C(F)(F)F)c2)C(=S)N1c1ccc(OC[C@@H](O)CO)cc1 [SHR-3680] | 50% | 11.3 ± 2.87 days | 5 pcs. | 50%
